Data taken from ChEMBL document CHEMBL1201862, “PubChem BioAssay data set” (2004).
One block for each compound: values may come before it. Active and inactive are the calls of the source.

What was measured:
[1] = biological target: T1, Corticotropin-releasing factor receptor 2/Corticotropin-releasing factor-binding protein (Homo sapiens, UniProt P24387+Q13324); experiment: Dose Response confirmation of uHTS hits for small molecule antagonists of the CRF-binding protein and CRF-R2 receptor complex.; format: functional; details: read-out: IC50_Mean
T1 sequence (Q13324 whole entry): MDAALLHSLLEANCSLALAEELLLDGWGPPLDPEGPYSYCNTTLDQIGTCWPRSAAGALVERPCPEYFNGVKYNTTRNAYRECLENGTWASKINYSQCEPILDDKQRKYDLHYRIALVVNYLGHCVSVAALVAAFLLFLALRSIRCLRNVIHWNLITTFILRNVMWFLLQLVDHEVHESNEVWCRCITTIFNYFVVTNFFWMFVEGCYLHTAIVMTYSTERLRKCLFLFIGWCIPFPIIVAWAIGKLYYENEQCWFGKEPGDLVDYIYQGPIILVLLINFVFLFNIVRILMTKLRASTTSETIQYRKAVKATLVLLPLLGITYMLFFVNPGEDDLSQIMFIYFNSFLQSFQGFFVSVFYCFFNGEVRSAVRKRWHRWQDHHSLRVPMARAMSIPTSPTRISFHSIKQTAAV
T1 sequence (P24387 whole entry): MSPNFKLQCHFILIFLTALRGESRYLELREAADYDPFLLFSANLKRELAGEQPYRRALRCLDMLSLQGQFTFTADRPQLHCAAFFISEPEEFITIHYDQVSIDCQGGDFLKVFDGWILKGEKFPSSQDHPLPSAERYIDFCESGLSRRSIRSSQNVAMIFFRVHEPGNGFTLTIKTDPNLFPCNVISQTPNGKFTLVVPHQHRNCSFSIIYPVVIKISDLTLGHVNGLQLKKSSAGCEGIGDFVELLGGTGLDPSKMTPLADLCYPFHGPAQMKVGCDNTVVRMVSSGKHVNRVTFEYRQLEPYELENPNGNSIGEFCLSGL

[2] = biological target: T1, Corticotropin-releasing factor receptor 2/Corticotropin-releasing factor-binding protein; experiment: activators of CRF receptor 2 with binding protein – uHTS hits, confirmation (AID 602473); format: functional; details: read-out: EC50_Mean
[3] = biological target: T2, Carboxy-terminal domain RNA polymerase II polypeptide A small phosphatase 1 (Homo sapiens, UniProt Q9GZU7); experiment: inhibitors of CTDSP1, concentration-response testing, biochemical assay, absorbance-based, actives from ultra-high-throughput screening (AID 540297); format: functional
T2 sequence (Q9GZU7 whole entry): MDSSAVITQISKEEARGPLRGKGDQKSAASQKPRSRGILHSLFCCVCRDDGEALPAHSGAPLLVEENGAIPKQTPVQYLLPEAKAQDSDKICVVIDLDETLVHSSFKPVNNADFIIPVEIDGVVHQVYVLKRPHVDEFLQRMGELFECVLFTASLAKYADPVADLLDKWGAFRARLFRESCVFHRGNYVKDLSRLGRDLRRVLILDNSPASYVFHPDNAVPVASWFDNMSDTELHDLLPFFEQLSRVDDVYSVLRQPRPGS

Genome polyprotein = Genome polyprotein (dengue virus type 2, UniProt P29990); experiment: Dengue-2 NS5 methyltransferase inhibitors, primary screen, biochemical, confirmation dose response (AID 588689); format: functional
Streptococcus = experiment: Group A Streptococcus viability loss, dose response, counter-screen for streptokinase expression inhibitor project, luminescence, BacTiterGlo (AID 1915); format: functional, organism-based;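 note: potency for reduction of bacterial viability or growth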
[4] = biological target: Heat shock protein HSP 90-alpha (Homo sapiens, UniProt P07900); format: functional, organism-based
INS1 = experiment: beta cell apoptosis inhibitors, cytokine rescue, dose response, luminescence, retest (AID 449756); format: functional, cell-based; details: Rattus norvegicus;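 note: cell death triggered by IL-1 beta plus TNF-alpha plus IFN-gamma mixture; protective hits raise ATP signal compared with cytokine alone wells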
[5] = biological target: T3, Polyadenylate-binding protein 1 (Homo sapiens, UniProt P11940); experiment: PABP1 MLLE–PAM2 interaction inhibitors, dose response, miRNA deadenylation inhibitor project, biochemical, fluorescence polarization, Cy5-PAM2 peptide, secondary (AID 602260); format: functional; details: read-out: IC50_Mean
[6] = biological target: T3, Polyadenylate-binding protein 1; experiment: PABP1 MLLE–PAM2 binding inhibitor potency, dose response, biochemical, fluorescence polarization, FITC-PAM2 peptide (AID 602259); format: functional; details: read-out: IC50_Mean
[7] = tested on: Streptococcus sp. 'group A'; experiment: growth inhibition of control SK(-) GAS strain, dose response, counter-screen for streptokinase expression inhibitor project, luminescence, kanamycin, BacTiterGlo, confirmation (AID 1900); format: functional, organism-based
Cytochrome P450 1A2 = biological target: T4, Cytochrome P450 1A2 (Homo sapiens, UniProt P05177);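 note: PubChem cytochrome P450 panel assay, CYP1A2 panel member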
T4 sequence (P05177 whole entry): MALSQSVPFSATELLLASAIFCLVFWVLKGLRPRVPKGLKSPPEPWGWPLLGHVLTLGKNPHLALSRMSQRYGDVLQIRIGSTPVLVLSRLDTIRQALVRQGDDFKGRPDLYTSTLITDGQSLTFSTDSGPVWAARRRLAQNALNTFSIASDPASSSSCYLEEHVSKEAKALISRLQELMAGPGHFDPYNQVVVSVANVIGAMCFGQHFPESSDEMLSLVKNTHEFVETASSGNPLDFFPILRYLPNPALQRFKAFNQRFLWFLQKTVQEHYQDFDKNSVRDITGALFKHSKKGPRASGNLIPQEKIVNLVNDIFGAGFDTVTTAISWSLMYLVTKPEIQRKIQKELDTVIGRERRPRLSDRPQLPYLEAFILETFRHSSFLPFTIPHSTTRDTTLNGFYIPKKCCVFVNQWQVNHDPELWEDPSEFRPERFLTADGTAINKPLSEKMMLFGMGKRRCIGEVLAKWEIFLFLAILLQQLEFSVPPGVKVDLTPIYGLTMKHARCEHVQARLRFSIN

Cytochrome P450 2C9 = Cytochrome P450 2C9 (Homo sapiens, UniProt P11712)
Large T antigen = Large T antigen (Simian virus 40, UniProt P03070); format: functional, Betapolyomavirus macacae;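 note: Confirmatory-stage PubChem screen for compounds that inhibit SV40 T antigen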
[8] = biological target: T5, RNA-binding protein pos-1 (Caenorhabditis elegans, UniProt G5EF15); experiment: inhibitors of POS-1/mex-3 RNA binding, dose response, biochemical, fluorescence polarization (AID 1964);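 note: purified POS-1 fused to maltose binding protein made in E. coli; potency of compounds blocking POS-1 binding to fluorescent RNA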
T5 sequence (G5EF15 whole entry): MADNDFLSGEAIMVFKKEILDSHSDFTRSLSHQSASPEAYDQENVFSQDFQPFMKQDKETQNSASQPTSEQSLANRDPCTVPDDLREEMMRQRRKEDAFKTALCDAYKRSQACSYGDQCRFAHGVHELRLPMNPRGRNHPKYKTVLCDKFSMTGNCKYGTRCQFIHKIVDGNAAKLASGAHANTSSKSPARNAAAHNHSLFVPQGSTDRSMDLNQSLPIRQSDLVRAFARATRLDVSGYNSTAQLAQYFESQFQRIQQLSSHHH

[9] = biological target: T6, Zinc finger protein mex-5 (Caenorhabditis elegans, UniProt Q9XUB2); experiment: MEX-5/TCR-2 RNA interaction inhibitors, dose response, biochemical, C. elegans, fluorescence polarization (AID 1960)
T6 sequence (Q9XUB2 whole entry): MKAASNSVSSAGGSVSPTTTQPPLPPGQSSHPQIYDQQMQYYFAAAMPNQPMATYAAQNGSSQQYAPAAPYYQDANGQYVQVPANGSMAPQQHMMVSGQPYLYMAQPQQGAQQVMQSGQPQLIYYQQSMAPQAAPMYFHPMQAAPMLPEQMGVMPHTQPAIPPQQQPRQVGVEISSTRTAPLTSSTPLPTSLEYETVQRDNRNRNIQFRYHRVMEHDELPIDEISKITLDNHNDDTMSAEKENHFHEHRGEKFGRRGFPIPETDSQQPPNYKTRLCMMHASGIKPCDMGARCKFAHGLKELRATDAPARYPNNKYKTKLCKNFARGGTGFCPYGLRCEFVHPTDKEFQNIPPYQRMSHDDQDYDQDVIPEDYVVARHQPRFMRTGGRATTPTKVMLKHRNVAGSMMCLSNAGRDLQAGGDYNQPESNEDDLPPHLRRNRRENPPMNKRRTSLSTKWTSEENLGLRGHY

T3 sequence (P11940 whole entry): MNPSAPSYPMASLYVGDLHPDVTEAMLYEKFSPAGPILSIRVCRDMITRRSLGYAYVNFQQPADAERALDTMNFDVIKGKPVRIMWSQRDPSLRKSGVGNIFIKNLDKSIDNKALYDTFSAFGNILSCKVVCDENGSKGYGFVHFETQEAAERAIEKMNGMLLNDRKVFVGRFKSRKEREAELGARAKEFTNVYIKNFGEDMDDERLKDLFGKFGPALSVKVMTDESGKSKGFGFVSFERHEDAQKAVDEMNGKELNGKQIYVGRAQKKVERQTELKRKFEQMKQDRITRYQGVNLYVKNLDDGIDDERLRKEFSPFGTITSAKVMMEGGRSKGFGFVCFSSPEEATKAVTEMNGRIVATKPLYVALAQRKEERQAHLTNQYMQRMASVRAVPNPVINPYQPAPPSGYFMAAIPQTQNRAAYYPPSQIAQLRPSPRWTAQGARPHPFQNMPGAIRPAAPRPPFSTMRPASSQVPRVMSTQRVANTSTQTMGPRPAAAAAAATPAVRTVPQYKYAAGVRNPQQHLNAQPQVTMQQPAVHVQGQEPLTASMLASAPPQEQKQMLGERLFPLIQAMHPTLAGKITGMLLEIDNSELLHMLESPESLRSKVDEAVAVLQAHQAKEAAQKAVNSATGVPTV
Sequence of Cytochrome P450 2C9 (P11712 whole entry): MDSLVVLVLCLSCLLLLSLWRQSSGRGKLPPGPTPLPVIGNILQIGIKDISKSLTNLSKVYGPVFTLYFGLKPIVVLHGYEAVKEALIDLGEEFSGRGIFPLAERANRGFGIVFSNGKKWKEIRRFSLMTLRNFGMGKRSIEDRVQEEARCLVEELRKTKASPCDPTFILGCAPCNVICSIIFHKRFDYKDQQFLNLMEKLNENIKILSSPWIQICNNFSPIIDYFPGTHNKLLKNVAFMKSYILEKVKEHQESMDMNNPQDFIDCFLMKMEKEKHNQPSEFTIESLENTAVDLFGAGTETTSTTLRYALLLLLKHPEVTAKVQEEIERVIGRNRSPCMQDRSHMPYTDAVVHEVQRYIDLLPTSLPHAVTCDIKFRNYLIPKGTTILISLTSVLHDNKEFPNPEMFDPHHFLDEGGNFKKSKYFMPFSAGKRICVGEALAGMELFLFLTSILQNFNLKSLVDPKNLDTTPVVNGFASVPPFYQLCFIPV
Sequence of Large T antigen (P03070 whole entry, the tested form may be a part): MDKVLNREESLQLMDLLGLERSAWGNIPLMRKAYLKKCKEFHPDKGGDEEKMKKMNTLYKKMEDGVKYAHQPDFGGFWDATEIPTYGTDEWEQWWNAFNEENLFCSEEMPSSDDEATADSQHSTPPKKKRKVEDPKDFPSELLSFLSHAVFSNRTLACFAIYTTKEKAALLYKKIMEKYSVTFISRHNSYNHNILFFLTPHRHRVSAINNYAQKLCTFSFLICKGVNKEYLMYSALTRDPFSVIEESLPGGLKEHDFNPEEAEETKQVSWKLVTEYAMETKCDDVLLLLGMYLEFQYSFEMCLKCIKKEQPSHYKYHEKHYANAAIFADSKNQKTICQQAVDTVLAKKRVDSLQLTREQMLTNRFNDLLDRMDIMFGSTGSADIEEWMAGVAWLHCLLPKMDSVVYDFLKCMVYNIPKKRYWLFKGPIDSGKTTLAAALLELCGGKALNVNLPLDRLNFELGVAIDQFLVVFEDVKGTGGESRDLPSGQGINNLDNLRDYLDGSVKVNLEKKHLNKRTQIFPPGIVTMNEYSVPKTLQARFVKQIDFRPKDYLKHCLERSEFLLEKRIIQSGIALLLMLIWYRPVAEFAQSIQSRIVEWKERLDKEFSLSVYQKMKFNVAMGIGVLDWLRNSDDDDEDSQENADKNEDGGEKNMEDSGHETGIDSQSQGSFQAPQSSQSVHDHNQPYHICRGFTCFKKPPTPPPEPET
Sequence of Genome polyprotein (P29990 2492-3391 limits assumed): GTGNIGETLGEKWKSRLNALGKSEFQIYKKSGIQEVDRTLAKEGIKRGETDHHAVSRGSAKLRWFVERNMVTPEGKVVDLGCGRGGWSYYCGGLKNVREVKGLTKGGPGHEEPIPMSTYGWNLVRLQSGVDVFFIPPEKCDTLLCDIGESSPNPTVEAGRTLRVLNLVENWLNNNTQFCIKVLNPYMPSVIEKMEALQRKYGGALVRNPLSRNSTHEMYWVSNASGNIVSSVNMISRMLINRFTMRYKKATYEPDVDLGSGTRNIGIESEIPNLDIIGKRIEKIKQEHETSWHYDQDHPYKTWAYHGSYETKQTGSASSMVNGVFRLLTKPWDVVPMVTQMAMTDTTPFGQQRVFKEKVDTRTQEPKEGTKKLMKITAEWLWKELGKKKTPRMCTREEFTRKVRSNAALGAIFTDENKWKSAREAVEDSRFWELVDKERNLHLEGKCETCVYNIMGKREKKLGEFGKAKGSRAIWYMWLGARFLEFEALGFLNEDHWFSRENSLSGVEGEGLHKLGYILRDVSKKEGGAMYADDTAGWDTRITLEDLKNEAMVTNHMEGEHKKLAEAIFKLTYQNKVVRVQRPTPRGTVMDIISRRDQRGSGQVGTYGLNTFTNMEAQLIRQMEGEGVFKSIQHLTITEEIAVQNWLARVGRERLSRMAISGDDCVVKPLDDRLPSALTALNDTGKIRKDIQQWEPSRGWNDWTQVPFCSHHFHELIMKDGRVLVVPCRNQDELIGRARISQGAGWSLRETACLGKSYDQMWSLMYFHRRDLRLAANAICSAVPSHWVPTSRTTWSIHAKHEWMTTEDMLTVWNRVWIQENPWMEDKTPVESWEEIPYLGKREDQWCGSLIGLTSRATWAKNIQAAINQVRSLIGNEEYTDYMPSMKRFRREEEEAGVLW

Compound: O=C1Nn2c(nc3c(c2=O)CCCC3)/C1=N/Nc1cccc(Cl)c1
IC50 [1]: 19.2 µM (active)
EC50 [2]: > 53 µM (inactive)
IC50 [3]: 5.32 µM (active)
IC50 (Genome polyprotein): 62.4 µM (active)

Compound: CCN1CCN(C(c2ccc(C(F)(F)F)cc2)c2ccc3cccnc3c2O)CC1 (stereo not drawn)
EC50 (Streptococcus): 3.5 µM (active)
AC50 [4]: 1.36 µM (active)
AC50 (INS1): 2.15 µM (active)
IC50 [5]: > 66 µM (inactive)
IC50 [6]: > 66 µM (inactive)
EC50 [7]: 3.02 µM (active)

Compound: CN1CCN(c2ncc3nc(-c4cc(F)cc(F)c4)c(=O)n(C)c3n2)CC1
AC50 (Cytochrome P450 1A2): 5.01 µM (inconclusive)
AC50 (Cytochrome P450 2C9): inconclusive

Compound: O=C1C=CC(=O)N1c1ccc(O)cc1
AC50 [4]: 3.13 µM (active)
IC50 (Large T antigen): 81 µM (active)

Compound: COc1ccccc1N1CCN(C(c2ccc(Cl)cc2)c2nnnn2C(C)(C)C)CC1 (stereo not drawn)
IC50 [1]: > 47.1 µM (inactive)
EC50 [2]: > 53 µM (inactive)

Now from value to compound:

IC50 [1]: > 47.1 µM (inactive)
EC50 [2]: > 53 µM (inactive)
Compound: C=CCN(CC(=O)NCc1ccccc1)C(=O)c1csnn1

AC50 (Cytochrome P450 1A2): 3.16 µM (inconclusive)
AC50 (Cytochrome P450 2C9): inconclusive
Compound: Cc1cc(C)cc(NC(=O)CCc2nc3ccccc3[nH]2)c1

AC50 [4]: 7.95 µM (active)
Compound: CN(C)/C=C/C(=O)c1ccc2noc(-c3cccc(F)c3)c2c1

AC50 [4]: 2.23 µM (active)
Compound: Cc1cc(N2CCN(C(=O)c3ccco3)CC2)n2ncc(-c3ccccc3)c2n1

IC50 [1]: > 47.1 µM (inactive)
EC50 [2]: > 53 µM (inactive)
EC50 [8]: 7.08 µM (active)
EC50 [9]: 2.04 µM (inconclusive)
IC50 [5]: > 66 µM (inactive)
IC50 [6]: 28.7 µM (inactive)
Compound: CC(C)(C)OC(=O)NC(Cc1ccccc1)C(=O)N1CCC(C(=O)NCC(=O)Nc2ccc(F)cc2)CC1 (stereo not drawn)
